Experimental data: paper PMC6920806, “Synthesis of β-D-galactopyranoside-Presenting Glycoclusters, Investigation of Their Interactions with Pseudomonas aeruginosa Lectin A (PA-IL) and Evaluation of Their Anti-Adhesion Potential” (Biomolecules, 2019)
“Also recorded” adds a separate entry of the source. Where two headings read alike, the source gives them in different places.

What was measured:
lectin PA-IL = molecular target: T1, lectin PA-IL (Pseudomonas aeruginosa, UniProt Q05097); assay: SPR inhibition of PA-IL binding to immobilized D-galactosides; conditions: for Potency (IC50 of standard/IC50 of inhibitor) / β (Potency/Valency): standard D-galactose
T1 construct: made in house; host or cells: Escherichia coli BL21(DE3)
Experimental: Surface plasmon resonance (SPR) experiments were performed on a BIAcore T200 instrument (GE Healthcare, Chicago, IL, USA) at 25 °C, using HBST running buffer (10 mM HEPES, 150 mM NaCl, 0.5 mM CaCl2, 0.05% Tween 20, pH = 7). A CM5 sensor chip (GE Healthcare, Chicago, IL, USA) covered with a carboxymethylated dextran matrix was used for ligand immobilization. The sensor chip surface was activated with N-ethyl-N-(3-dimethylaminopropyl)carbodiimide/N-hydroxysuccinimide solution and then coated with streptavidin (Sigma-Aldrich, St. Louis, MO, USA) in 10 mM acetate pH = 5.0 according to the manufacturer’s standard protocol to a final response of 7000 RU. Unreacted groups were blocked with 1 M ethanolamine-HCl, pH = 8.5. 0.5 mM biotinylated carbohydrate (1:1 mixture of biotin-α-D-galactoside and biotin-β-D-galactoside for measuring channel and α-L-fucoside for blank channel, all Lectinity, Moskow, Russia) was injected into a particular channel at a flow rate of 5 μL min^−1.
In the experimental setup, SPR inhibition measurements were carried out simultaneously on both measuring and blank channels at a flow rate of 5 µL min^−1. […] The response of the blank channel was subtracted from the response of lectin bound to the galactose-modified surface at equilibrium and plotted against the concentration of inhibitor in order to determine IC50 (concentration of inhibitor resulting in 50% inhibition of binding). As IC50 is not a constant and depends on the experimental set-up, a parameter called potency was used for characterization. The potency of a tested inhibitor is the ratio of IC50 of a chosen standard inhibitor (in this case, D-galactose) and the inhibitor in question. Pure lectin PA-IL was used as a control (0% inhibition).

[1] = test system: adhesion of P. aeruginosa (ST 1763) to epithelial bronchial cells (CuFi-1); assay: Ex vivo bacterial adherence assay: inhibition of P. aeruginosa adhesion to epithelial cells; type: cell-based, Pseudomonas aeruginosa; conditions: for bacterial adhesion compared to the untreated control: highest concentration (2 mM); for bacterial adhesion compared to the untreated control / inhibitory effect on bacterial adhesion compared to the control: 2 h incubation; for concentrations with significant protecting (anti-adhesion) effect: p < 0.05, Dunnett test
Experimental: Epithelial CuFi-1 cells (an immortalized epithelial cell line derived from cystic fibrosis human lungs, ATCC, Kielpin, Poland) were labelled with PKH67 (Fluorescent Cell Linker Kit, Sigma-Aldrich, St. Louis, MO, USA), a green fluorescent membrane marker, as follows. An aliquot of cell suspension containing 7 × 10^6 cells was washed with PBS buffer and centrifuged (100× g for 5 min). The cell pellet was resuspended in 250 µL of Diluent C (Fluorescent Cell Linker Kit, Sigma-Aldrich, St. Louis, MO, USA). Immediately, an equal volume of 8 µM PKH67 in Diluent C (2 µL of PKH67 in 248 µL of Diluent C) was added to the cell suspension. After 5 min incubation at room temperature with periodic mixing, the staining reaction was stopped by adding an equal volume of 1% Fetal Bovine Serum (FBS, Gibco^TM Invitrogen, Paisley, UK) in PBS. After 1 min incubation with FBS, the suspension was centrifuged (100× g for 10 min). Finally, the cells were washed three times with Bronchial Epithelial Cell Growth Basal Medium (Lonza, Basel, Switzerland), followed by centrifugation (100× g for 5 min).
Pseudomonas aeruginosa strain 1763 (University Hospital Motol, Prague, Czech Republic) was stained with PKH26 (Fluorescent Cell Linker Kit, Sigma-Aldrich, St. Louis, MO, USA), a red fluorescent membrane marker. Bacteria were grown in a suspension culture in PS medium (peptone/casein digest) in an Erlenmeyer flask for 14 h. The culture was washed with PBS buffer and centrifuged (13,400× g for 5 min). The pellet containing 1.5 × 10^9 bacteria was resuspended in 125 µL of Diluent C (Fluorescent Cell Linker Kit, Sigma-Aldrich, St. Louis, MO, USA) and an equal volume of 16 µM PKH26 in Diluent C (2 µL of PKH26 in 123 µL of Diluent C) was added to the bacterial suspension. The bacteria/dye suspension was incubated for 30 min at room temperature with periodic mixing. The staining was quenched by adding an equal volume of 1% BSA (Bovine Serum Albumin, Merck, Kenilworth, NJ, USA) in PBS. The suspension was incubated with BSA for 1 min to allow the binding of excess dye and then centrifuged (15,700× g for 10 min). Bacteria were washed two times with PBS, followed by centrifugation (13,400× g for 7.5 and 5 min).
Epithelial cells CuFi-1 stained with PKH67 were seeded at 8.4 × 10^4 cells/well onto 96-well plates (CellBIND® 96-well Flat Clear Bottom Black Polystyrene Microplates, Corning Incorporated, Corning, NY, USA) and incubated for 42–45 h at 37 °C, 5% CO2 to form a confluent monolayer and regenerate. Prior to the assay, wells were washed with PBS. Compounds 4, 7, 10 and 13 were serially diluted with PBS to the desired concentrations. PKH26-stained bacteria P. aeruginosa were added to the diluted inhibitor solutions. Bacterial suspensions were immediately added to the wells (50 µL/well). The input ratio was about 100 bacteria per epithelial cell (8.4 × 10^6 bacteria/well). A suspension without any inhibitor was used as a control. After 2 h incubation at room temperature, the wells were extensively washed three times with PBS to remove non-adhered bacteria. The fluorescence of adhered P. aeruginosa cells (Ex 522 nm, Em 569 nm for PKH26) on epithelial cells (Ex 470 nm, Em 505 for PKH67) was quantified using the spectrofluorometer Tecan Infinite M200 Pro (Tecan Group Ltd., Männedorf, Switzerland). Results were expressed as a relative fluorescence ratio of P. aeruginosa/CuFi-1. Three independent incubations were performed.

[2] = read-out: IC50 (concentration of inhibitor resulting in 50% inhibition of binding), SPR, PA-IL 45 µM, galactoside-modified chip, 25 °C

T1 sequence (Q05097 2-122): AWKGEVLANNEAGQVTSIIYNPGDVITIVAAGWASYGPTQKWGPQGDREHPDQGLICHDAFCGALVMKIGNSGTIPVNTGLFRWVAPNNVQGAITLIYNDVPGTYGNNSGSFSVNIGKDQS

Compound: COC(=O)c1cc(OCc2cn(CCn3cc(CO[C@@H]4O[C@H](CO)[C@H](O)[C@H](O)[C@H]4O)nn3)nn2)c(OCc2cn(CCn3cc(CO[C@@H]4O[C@H](CO)[C@H](O)[C@H](O)[C@H]4O)nn3)nn2)c(OCc2cn(CCn3cc(CO[C@@H]4O[C@H](CO)[C@H](O)[C@H](O)[C@H]4O)nn3)nn2)c1 [Compound 10]
- IC50 (lectin PA-IL): 7.4 µM
- Potency (IC50 of standard/IC50 of inhibitor) (lectin PA-IL; SPR): 25.3
- β (Potency/Valency) (lectin PA-IL; SPR): 8.4
- lower concentrations resulting in statistically significantly increased fluorescent signal (adhered bacteria) [1]: ≤ 125 µM
- bacterial adhesion compared to the untreated control [1]: approximately 32%
- concentrations with significant protecting (anti-adhesion) effect [1]: ≥ 1 mM

Compound: OC[C@H]1O[C@@H](OCc2cn(CCn3cc(COCC(COCc4cn(CCn5cc(CO[C@@H]6O[C@H](CO)[C@H](O)[C@H](O)[C@H]6O)nn5)nn4)(COCc4cn(CCn5cc(CO[C@@H]6O[C@H](CO)[C@H](O)[C@H](O)[C@H]6O)nn5)nn4)COCc4cn(CCn5cc(CO[C@@H]6O[C@H](CO)[C@H](O)[C@H](O)[C@H]6O)nn5)nn4)nn3)nn2)[C@H](O)[C@@H](O)[C@H]1O [Compound 13]
- IC50 (lectin PA-IL; [2]): 4.3 µM
- lower concentrations resulting in statistically significantly increased fluorescent signal (adhered bacteria) [1]: ≤ 125 µM
- bacterial adhesion compared to the untreated control [1]: ~42%
- concentrations with significant protecting (anti-adhesion) effect [1]: ≥ 1 mM

Compound: OC[C@H]1O[C@@H](OCc2cn(CCOCCOCCOCCn3cc(COCC(COCc4cn(CCOCCOCCOCCn5cc(CO[C@@H]6O[C@H](CO)[C@H](O)[C@H](O)[C@H]6O)nn5)nn4)(COCc4cn(CCOCCOCCOCCn5cc(CO[C@@H]6O[C@H](CO)[C@H](O)[C@H](O)[C@H]6O)nn5)nn4)COCc4cn(CCOCCOCCOCCn5cc(CO[C@@H]6O[C@H](CO)[C@H](O)[C@H](O)[C@H]6O)nn5)nn4)nn3)nn2)[C@H](O)[C@@H](O)[C@H]1O [Compound 7]
- Potency (IC50 of standard/IC50 of inhibitor) (lectin PA-IL; SPR): 25.6
- β (Potency/Valency) (lectin PA-IL; SPR): 6.4
- IC50 (lectin PA-IL; [2]): 7.3 µM
- inhibitory effect on bacterial adhesion compared to the control [1]: no inhibitory effect; also recorded: no visible protective effect

Compound: COC(=O)c1cc(OCc2cn(CCOCCOCCOCCn3cc(CO[C@@H]4O[C@H](CO)[C@H](O)[C@H](O)[C@H]4O)nn3)nn2)c(OCc2cn(CCOCCOCCOCCn3cc(CO[C@@H]4O[C@H](CO)[C@H](O)[C@H](O)[C@H]4O)nn3)nn2)c(OCc2cn(CCOCCOCCOCCn3cc(CO[C@@H]4O[C@H](CO)[C@H](O)[C@H](O)[C@H]4O)nn3)nn2)c1 [Compound 4]
- Potency (IC50 of standard/IC50 of inhibitor) (lectin PA-IL; SPR): 27.5
- β (Potency/Valency) (lectin PA-IL; SPR): 9.2
- IC50 (lectin PA-IL; [2]): 6.8 µM
- inhibitory effect on bacterial adhesion compared to the control [1]: no inhibitory effect; also recorded: no visible protective effect
